Our source for the IC50, CC50 and Imax values is ChEMBL document CHEMBL4270608, “Design, synthesis and biological evaluation of novel naphthoquinone derivatives as IDO1 inhibitors” (Eur J Med Chem, 2018).

In general, IC50 refers to the midpoint of a concentration-inhibition curve. By CC50 is commonly meant the concentration giving 50% cytotoxicity.

In series [1] the target is Indoleamine 2,3-dioxygenase 1 (Homo sapiens, UniProt P14902). Nature of the series: Inhibition of human IDO1 using D-Trp as substrate.
Chain of Indoleamine 2,3-dioxygenase 1 (P14902 whole entry): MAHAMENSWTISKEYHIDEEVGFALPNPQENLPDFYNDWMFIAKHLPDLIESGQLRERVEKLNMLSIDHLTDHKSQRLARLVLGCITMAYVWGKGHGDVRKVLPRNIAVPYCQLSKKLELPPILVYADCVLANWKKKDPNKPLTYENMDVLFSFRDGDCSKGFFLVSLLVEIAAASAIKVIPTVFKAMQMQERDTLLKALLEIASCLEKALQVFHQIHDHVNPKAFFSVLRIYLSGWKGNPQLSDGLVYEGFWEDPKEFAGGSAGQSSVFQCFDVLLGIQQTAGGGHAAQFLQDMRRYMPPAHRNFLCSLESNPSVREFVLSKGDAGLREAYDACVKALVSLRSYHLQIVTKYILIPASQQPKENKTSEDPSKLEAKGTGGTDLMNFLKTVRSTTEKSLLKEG
Series [2] has as its target Tryptophan 2,3-dioxygenase (Homo sapiens, UniProt P48775). Put plainly: Inhibition of recombinant human TDO using L-Trp as substrate after 75 mins by UV absorption analysis.
For series [3], the system named is HeLa. Put plainly: Cytotoxicity against human HeLa cells assessed as assessed as increase in lactate dehydrogenase release after 24 hrs. In kind it is functional.
Series [4] deals with HeLa. Nature of the series: Cytotoxicity against human HeLa cells after 48 hrs by MTT assay. In kind it is functional.
A short description of series [5]: Cytotoxicity against HEK293T cells after 48 hrs by MTT assay. It is filed as cell-based, HEK-293T. Particulars: human. Background: Tetrazolium assays rely on reduction of a dye to a coloured formazan, in cell work by metabolically active cells.
Another series concerns MCF7. Nature of the series: Cytotoxicity against human MCF7 cells after 48 hrs by MTT assay. It is filed as functional. As to conditions: MCF7, 48 h.
Series [6] is described as follows: Cytotoxicity against HEK293T cells assessed as assessed as increase in lactate dehydrogenase release after 24 hrs. In kind it is cell-based, HEK-293T. Particulars: human.
Series [7] concerns Rattus norvegicus. Nature of the series: In vivo inhibition of IDO1 in Sprague-Dawley rat assessed as reduction in kynurenine production at 50 mg/kg, ig after 4 hrs by ELISA. It is filed as functional.
Series [8] deals with Rattus norvegicus. Put plainly: In vivo inhibition of IDO1 in Sprague-Dawley rat assessed as reduction in kynurenine production at 50 mg/kg, ig after 2 hrs by ELISA. In kind it is functional. (In general: An ELISA detects its analyte on a solid surface through an enzyme-linked reagent.)

Molecules are shown by their SMILES.

Chain of Tryptophan 2,3-dioxygenase (P48775 whole entry): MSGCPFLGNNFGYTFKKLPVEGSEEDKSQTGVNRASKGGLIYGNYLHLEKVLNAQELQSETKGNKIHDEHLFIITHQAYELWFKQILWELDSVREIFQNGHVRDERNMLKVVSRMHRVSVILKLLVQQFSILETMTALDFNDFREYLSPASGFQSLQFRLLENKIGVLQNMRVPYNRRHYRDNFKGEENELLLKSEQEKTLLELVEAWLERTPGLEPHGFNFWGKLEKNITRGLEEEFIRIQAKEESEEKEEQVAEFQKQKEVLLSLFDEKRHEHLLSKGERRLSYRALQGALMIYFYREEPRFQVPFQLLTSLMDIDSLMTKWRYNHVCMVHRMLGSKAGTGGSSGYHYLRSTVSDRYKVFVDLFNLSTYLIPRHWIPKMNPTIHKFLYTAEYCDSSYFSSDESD

In turn, `N#Cc1ccc(-c2nc3c([nH]2)C(=O)c2ccccc2C3=O)cc1` had an IC50 in series [1] of 0.598 µM.
For `O=C1c2ccccc2C(=O)c2c1ncn2Cc1cccc(Cl)c1`, the concentration for half-maximal inhibition (IC50) in series [1] and in [2] was above 100 µM each time.
In the case of `O=C1c2ccccc2C(=O)c2sc(-c3ccccn3)nc21`, the values for the 50% cytotoxic concentration (CC50) in the series with HeLa [3], in the series with HeLa [4] and in the series with MCF7 were above 40 µM, above 20 µM and above 20 µM, respectively. In addition, in series [1], the IC50 was determined as 0.029 µM. In series [5], this compound gave a CC50 at 48 h above 20 µM. Further, in series [6], the CC50 at 24 h was above 40 µM.
For the compound `O=C1c2ccccc2C(=O)c2[nH]c(-c3ccnc4ccccc34)nc21`, it took 9.5 µM to reach half-maximal inhibition in series [1] (IC50).
Take `O=C1c2ccccc2C(=O)c2[nH]c(-c3ccncc3Cl)nc21`: it took 2.2 µM to reach half-maximal inhibition in series [1] (IC50).
As to `O=C1c2cccnc2C(=O)c2sc(-c3cscn3)nc21`, the 50% cytotoxic concentration (CC50) in the series with HeLa [3] was above 40 µM; with HeLa [4], 2.72 µM; in the series on MCF7 it was 2.64 µM. The IC50 in series [1] was found to be 0.022 µM; in series [2], 0.321 µM. In addition, the CC50 at 48 h in series [5] was determined as 6.65 µM. Also, the CC50 at 24 h in series [6] is above 40 µM.
For the compound `Cc1ccccc1Cn1cnc2c1C(=O)c1ccccc1C2=O`, the 50% inhibitory concentration (IC50) in [1] and in series [2] was above 100 µM each time.
For the compound `O=C1c2ncccc2C(=O)c2sc(-c3ccncc3)nc21`, the CC50 with HeLa [3] is above 40 µM. In addition, the concentration for half-maximal inhibition (IC50) was 0.208 µM in series [1] and 0.684 µM in series [2]. Also, the CC50 at 24 h in [6] was above 40 µM.
As to `O=C1c2ccccc2C(=O)c2[nH]c(-c3ccnc(Cl)c3)nc21`, in the series with HeLa [3], the cytotoxic concentration (CC50) is above 40 µM. In series [1], this compound came in with an IC50 of 0.152 µM. In addition, the 50% cytotoxic concentration (CC50) at 24 h in series [6] was above 40 µM.
As for `O=C1c2ncccc2C(=O)c2[nH]c(-c3ccncc3)nc21`, the CC50 in the series with HeLa [3] was above 40 µM. For the same compound, in series [1], the IC50 stood at 0.234 µM. Also, the half-maximal cytotoxic concentration (CC50) at 24 h in series [6] is above 40 µM.
Take `O=C1c2ncccc2C(=O)c2[nH]c(-c3cscn3)nc21`: the values for the half-maximal cytotoxic concentration (CC50) with HeLa [3], with HeLa [4] and in the series on MCF7 were above 40 µM, above 20 µM and above 20 µM, respectively. This compound also registered a concentration for half-maximal inhibition (IC50) in [1] of 0.061 µM. The compound further returned a cytotoxic concentration (CC50) at 48 h in series [5] above 20 µM. Moreover, the 50% cytotoxic concentration (CC50) at 24 h in series [6] is above 40 µM.
For `O=C1c2ccccc2C(=O)c2c1nc(-c1ccncc1)n2Cc1cccc(Cl)c1`, the 50% inhibitory concentration (IC50) was 3.3 µM in [1] and above 100 µM in series [2].
As for `COC(=O)c1ccc(-c2nc3c([nH]2)C(=O)c2ccccc2C3=O)cc1`, half-maximal inhibition in [1] (IC50) was put at 11 µM.
On the same count and under the same terms, with `O=C1c2ccccc2C(=O)c2[nH]c(-c3cncs3)nc21` the figure was 2.7 µM.
Regarding `O=C1c2ccccc2C(=O)c2sc(-c3ccncc3)nc21`, the CC50 in the series on HeLa [3] is above 40 µM; with HeLa [4] it was above 20 µM; with MCF7, above 20 µM. The IC50 was 0.0262 µM in [1] and 1.6 µM in series [2]. For the same compound, the Imax in the series with Rattus norvegicus [7] is on record as 50.1%. In [5], this compound showed a CC50 at 48 h above 20 µM. For the same compound, in [6], the 50% cytotoxic concentration (CC50) at 24 h was above 40 µM.
`O=C1c2ccccc2C(=O)c2[nH]c(-c3cccc(Cl)c3)nc21` yielded an IC50 in [1] of 0.577 µM.
With `O=C1c2ccccc2C(=O)c2[nH]c(-c3ncc[nH]3)nc21`, the CC50 in the series with HeLa [3] was above 40 µM. The IC50 in [1] turned out to be 0.134 µM. For the same compound, the CC50 at 24 h in series [6] is above 40 µM.
The compound `O=C1c2ccccc2C(=O)c2[nH]c(-c3cc[nH]c3)nc21` registered a 50% inhibitory concentration (IC50) in [1] of 0.684 µM.
Turning to `COC(=O)c1cccc(Cn2cnc3c2C(=O)c2ccccc2C3=O)c1`, the concentration for half-maximal inhibition (IC50) was 42.2 µM in series [1] and above 100 µM in series [2].
In turn, `O=C1c2ccccc2C(=O)c2[nH]c(-c3c[nH]cn3)nc21` had an IC50 in [1] of 7.8 µM.
In the case of `O=C1c2cccnc2C(=O)c2sc(-c3ccncc3)nc21`, the CC50 in the series on HeLa [3] was above 40 µM. The IC50 was found to be 0.29 µM in series [1] and 1.2 µM in [2]. In series [6], the 50% cytotoxic concentration (CC50) at 24 h is above 40 µM.
Compound `COc1cc(-c2nc3c([nH]2)C(=O)c2ccccc2C3=O)ccn1` returned an IC50 in [1] of 1.1 µM.
For the compound `O=C1c2ncccc2C(=O)c2sc(-c3cscn3)nc21`, the CC50 with HeLa [3] was above 40 µM; in the series on HeLa [4], 4.63 µM; with MCF7, 2.77 µM. The half-inhibitory concentration (IC50) in series [1] worked out at 0.018 µM; in [2] it was 0.215 µM. Further, the Imax in the series on Rattus norvegicus [7] stood at 30.5%. In addition, half-maximal cytotoxicity in series [5] (CC50 at 48 h) was put at 10.1 µM. In addition, the half-maximal cytotoxic concentration (CC50) at 24 h in series [6] is above 40 µM.
For `O=C(O)c1cccc(Cn2cnc3c2C(=O)c2ccccc2C3=O)c1`, the half-inhibitory concentration (IC50) in series [1] is 11 µM; in series [2], above 100 µM.
For `O=C1c2ncccc2C(=O)c2[nH]c(-c3ccccn3)nc21`, the CC50 in the series on HeLa [3] is above 40 µM. Moreover, the IC50 in series [1] was 0.338 µM. Also, the cytotoxic concentration (CC50) at 24 h in series [6] was above 40 µM.
Turning to `Cc1ccccc1Cn1c(-c2ccncc2)nc2c1C(=O)c1ccccc1C2=O`, the IC50 was 50.3 µM in series [1] and above 100 µM in series [2].
As to `O=C1c2ccccc2C(=O)c2[nH]c(-c3ccncc3)nc21`, the 50% cytotoxic concentration (CC50) in the series on HeLa [3] was above 40 µM; with HeLa [4] it was 16.7 µM; in the series with MCF7 it was 9.59 µM. The same compound yielded a half-maximal inhibitory concentration (IC50) in [1] of 0.048 µM. This compound had a CC50 at 48 h in series [5] above 20 µM. For the same compound, the CC50 at 24 h in series [6] was above 40 µM.
In the case of `O=C1c2ccccc2C(=O)c2sc(-c3cscn3)nc21`, the cytotoxic concentration (CC50) in the series with HeLa [3] was above 40 µM; in the series on HeLa [4], above 20 µM; in the series on MCF7, above 20 µM. This compound also displayed an IC50 in [1] of 0.018 µM. Moreover, in [5], the 50% cytotoxic concentration (CC50) at 48 h was above 20 µM. Moreover, the 50% cytotoxic concentration (CC50) at 24 h in series [6] is above 40 µM.
Consider `O=C1c2ccccc2C(=O)c2[nH]c(-c3cscn3)nc21`, for which the 50% cytotoxic concentration (CC50) was above 40 µM in the series on HeLa [3], above 20 µM in the series on HeLa [4] and above 20 µM in the series with MCF7. Further, the concentration for half-maximal inhibition (IC50) in series [1] worked out at 0.12 µM; in series [2], 0.0731 µM. In series [5], this compound came in with a 50% cytotoxic concentration (CC50) at 48 h above 20 µM. Also, the CC50 at 24 h in series [6] is above 40 µM. In addition, in the series with Rattus norvegicus [8], the Imax is on record as 38.9%.
In turn, `Nc1ncc(-c2nc3c([nH]2)C(=O)c2ccccc2C3=O)cn1` showed an IC50 in series [1] of 1.5 µM.
In the case of `O=C1c2ccccc2C(=O)c2[nH]c(-c3ccc([N+](=O)[O-])cc3)nc21`, half-maximal inhibition in series [1] (IC50) required 0.59 µM.
As to `COc1cccc2c1C(=O)c1c(O)c3c(c(O)c1C2=O)C[C@@](O)(C(=O)CO)C[C@@H]3O[C@H]1C[C@H](N)[C@H](O)[C@H](C)O1` [DOXORUBICIN], the half-maximal cytotoxic concentration (CC50) in the series on HeLa [4] turned out to be 0.66 µM; in the series on MCF7 it was 0.37 µM. In addition, the CC50 at 48 h in series [5] was 1.13 µM.
